The record followed here is patent US9944666B2, “Compounds that are S1P modulating agents and/or ATX modulating agents” (BIOGEN MA INC., priority 2012, dated 2018).

By IC50 is commonly meant the concentration needed to halve the response being measured. A low value points to greater potency.

For this test, the target named is T1, Human ATX protein (Homo sapiens, UniProt Q13822).
T1 construct: made in house
Put plainly: ATX biochemical FRET assay with FS-3 substrate. The note with it: FS-3 2 μM, ATX 1.0 μg/mL, room temperature 2 hours, fluorescence 485/538 nm. Summed up:
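Purified human ATX (1.0 μg/mL final) preincubated with compound 30 min at room temperature in Tris pH 7.4 buffer with NaCl, KCl, CaCl2, MgCl2 and 1 mg/mL fatty acid-free BSA. FS-3 added to 2 μM final; 2 h at room temperature in the dark, fluorescence at ex 485/em 538 nm.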
`CC[C@H]1CC[C@@H](Oc2ccc3cc(CN4C5CCC4CC(C(=O)O)C5)ccc3c2C#N)CC1` (stereo partly drawn) [Example 200, 8-((5-cyano-6-((cis-4-ethylcyclohexyl)oxy)naphthalen-2-yl)methyl)-8-azabicyclo[3.2.1]octane-3-carboxylic acid]: the IC50 is ≤ 500 nM. Under `O=C(O)C1CC2CCCC(C1)N2C(=O)c1ccc2c(Cl)c(O[C@H]3CC[C@@H](C(F)(F)F)CC3)ccc2c1` (stereo partly drawn) [Example 201, 9-(5-chloro-6-((cis-4-(trifluoromethyl)cyclohexyl)oxy)-2-naphthoyl)-9-azabicyclo[3.3.1]nonane-3-carboxylic acid] stands ≤ 250 nM; under `CCC(c1ccc2c(Cl)c(O[C@H]3CC[C@@H](C(F)(F)F)CC3)ccc2c1)N1C2CCC1CC(C(=O)O)C2` (stereo partly drawn) [Example 202, 8-(1-(5-chloro-6-((cis-4-(trifluoromethyl)cyclohexyl)oxy)naphthalen-2-yl)propyl)-8-azabicyclo[3.2.1]octane-3-carboxylic acid], ≤ 100 nM; under `C[C@H]1CC[C@@H](Oc2ccc3cc(C(=O)N4C5CCC4CC(C(=O)O)C5)ccc3c2Cl)CC1` (stereo partly drawn) [Example 203, 8-(5-chloro-6-((cis-4-methylcyclohexyl)oxy)-2-naphthoyl)-8-azabicyclo[3.2.1]octane-3-carboxylic acid], ≤ 250 nM. For `CCC(c1ccc2c(C(F)(F)F)c(O[C@H]3CC[C@@H](C(C)(F)F)CC3)ccc2c1)N1C2CCC1CC(C(=O)O)C2` (stereo partly drawn) [Example 204, 8-(1-(6-((cis-4-(1,1-difluoroethyl)cyclohexyl)oxy)-5-(trifluoromethyl)naphthalen-2-yl)propyl)-8-azabicyclo[3.2.1]octane-3-carboxylic acid], the IC50 is ≤ 100 nM. With `CC(c1ccc2c(Cl)c(O[C@H]3CC[C@@H](C)CC3)ccc2c1)N1C2CCC1CC(C(=O)O)C2` (stereo partly drawn) [Example 205, 8-(1-(5-chloro-6-((cis-4-methylcyclohexyl)oxy)naphthalen-2-yl)ethyl)-8-azabicyclo[3.2.1]octane-3-carboxylic acid], the half-inhibitory concentration (IC50) was ≤ 250 nM.

On to `N#Cc1c(O[C@H]2CC[C@@H](C(F)(F)F)CC2)ccc2cc(C(=O)N3C4CCCC3CC(C(=O)O)C4)ccc12` (stereo partly drawn) [Example 206, 9-(5-cyano-6-((cis-4-(trifluoromethyl)cyclohexyl)oxy)-2-naphthoyl)-9-azabicyclo[3.3.1]nonane-3-carboxylic acid], for which the IC50 is ≤ 100 nM.

In the case of `C[C@H]1CC[C@@H](Oc2ccc3cc(CN4C5CCCC4CC(C(=O)O)C5)ccc3c2C#N)CC1` (stereo partly drawn) [Example 207, 9-((5-cyano-6-((cis-4-methylcyclohexyl)oxy)naphthalen-2-yl)methyl)-9-azabicyclo[3.3.1]nonane-3-carboxylic acid], the half-inhibitory concentration (IC50) was ≤ 100 nM.

Regarding `C[C@H]1CC[C@@H](Oc2ccc3cc(C(=O)N4C5CCCC4CC(C(=O)O)C5)ccc3c2Cl)CC1` (stereo partly drawn) [Example 208, 9-(5-chloro-6-((cis-4-methylcyclohexyl)oxy)-2-naphthoyl)-9-azabicyclo[3.3.1]nonane-3-carboxylic acid], the 50% inhibitory concentration (IC50) is ≤ 250 nM. Turning to `CC(F)(F)[C@H]1CC[C@@H](Oc2ccc3cc(CN4C5CCCC4CC(C(=O)O)C5)ccc3c2C(F)(F)F)CC1` (stereo partly drawn) [Example 209, 9-((6-((cis-4-(1,1-difluoroethyl)cyclohexyl)oxy)-5-(trifluoro-methyl)naphthalen-2-yl)methyl)-9-azabicyclo[3.3.1]nonane-3-carboxylic acid], the IC50 is ≤ 100 nM. In the case of `CCC(c1ccc2c(Cl)c(O[C@H]3CC[C@@H](C)CC3)ccc2c1)N1C2CCC1CC(C(=O)O)C2` (stereo partly drawn) [Example 210, 8-(1-(5-chloro-6-((cis-4-methylcyclohexyl)oxy)naphthalen-2-yl)propyl)-8-azabicyclo[3.2.1]octane-3-carboxylic acid], the half-maximal inhibitory concentration (IC50) is ≤ 100 nM. For the compound `CCC(c1ccc2c(Cl)c(O[C@H]3CC[C@@H](C)CC3)ccc2c1)N1C2CCCC1CC(C(=O)O)C2` (stereo partly drawn) [Example 211, 9-(1-(5-chloro-6-((cis-4-methylcyclohexyl)oxy)naphthalen-2-yl)propyl)-9-azabicyclo[3.3.1]nonane-3-carboxylic acid], the IC50 was ≤ 100 nM. On to `CC[C@H]1CC[C@@H](Oc2ccc3cc(C(C)N4C5CCC4CC(C(=O)O)C5)ccc3c2C#N)CC1` (stereo partly drawn) [Example 212, 8-(1-(5-cyano-6-((cis-4-ethylcyclohexyl)oxy)naphthalen-2-yl)ethyl)-8-azabicyclo[3.2.1]octane-3-carboxylic acid], for which the IC50 was ≤ 100 nM. Then `CC[C@H]1CC[C@@H](Oc2ccc3cc(C(C)N4C5CCCC4CC(C(=O)O)C5)ccc3c2C#N)CC1` (stereo partly drawn) [Example 213, 9-(1-(5-cyano-6-((cis-4-ethylcyclohexyl)oxy)naphthalen-2-yl)ethyl)-9-azabicyclo[3.3.1]nonane-3-carboxylic acid], with ≤ 100 nM; and `CC(c1ccc2c(Cl)c(O[C@H]3CC[C@@H](C)CC3)ccc2c1)N1C2CCCC1CC(C(=O)O)C2` (stereo partly drawn) [Example 214, 9-(1-(5-chloro-6-((cis-4-methylcyclohexyl)oxy)naphthalen-2-yl)ethyl)-9-azabicyclo[3.3.1]nonane-3-carboxylic acid], with ≤ 100 nM. In the case of `CC[C@H]1CC[C@@H](Oc2ccc3cc(C(=O)N4C5CCC4CC(C(=O)O)C5)ccc3c2Cl)CC1` (stereo partly drawn) [Example 215, 8-(5-chloro-6-((cis-4-ethylcyclohexyl)oxy)-2-naphthoyl)-8-azabicyclo[3.2.1]octane-3-carboxylic acid], the IC50 was ≤ 500 nM. For the compound `CC(c1ccc2c(C(F)(F)F)c(O[C@H]3CC[C@@H](C(C)(F)F)CC3)ccc2c1)N1C2CCC1CC(C(=O)O)C2` (stereo partly drawn) [Example 216, 8-(1-(6-((cis-4-(1,1-difluoroethyl)cyclohexyl)oxy)-5-(trifluoromethyl)naphthalen-2-yl)ethyl)-8-azabicyclo[3.2.1]octane-3-carboxylic acid], the IC50 is ≤ 100 nM.

With `CC(c1ccc2c(C(F)(F)F)c(O[C@H]3CC[C@@H](C(C)(F)F)CC3)ccc2c1)N1C2CCCC1CC(C(=O)O)C2` (stereo partly drawn) [Example 217, 9-(1-(6-((cis-4-(1,1-difluoroethyl)cyclohexyl)oxy)-5-(trifluoromethyl)naphthalen-2-yl)ethyl)-9-azabicyclo[3.3.1]nonane-3-carboxylic acid], the IC50 is ≤ 100 nM. For `C[C@H]1CC[C@@H](Oc2ccc3cc(C(=O)N4C5CCCC4CC(C(=O)O)C5)ccc3c2C#N)CC1` (stereo partly drawn) [Example 218, 9-(5-cyano-6-((cis-4-methylcyclohexyl)oxy)-2-naphthoyl)-9-azabicyclo[3.3.1]nonane-3-carboxylic acid], the IC50 was ≤ 100 nM.

Consider `C[C@H]1CC[C@@H](Oc2ccc3cc(C(=O)N4C5CCC4CC(C(=O)O)C5)ccc3c2C#N)CC1` (stereo partly drawn) [Example 219, 8-(5-cyano-6-((cis-4-methylcyclohexyl)oxy)-2-naphthoyl)-8-azabicyclo[3.2.1]octane-3-carboxylic acid], for which the 50% inhibitory concentration (IC50) was ≤ 100 nM. `CCC(c1ccc2c(C#N)c(O[C@H]3CC[C@@H](CC)CC3)ccc2c1)N1C2CCC1CC(C(=O)O)C2` (stereo partly drawn) [Example 220, 8-(1-(5-cyano-6-((cis-4-ethylcyclohexyl)oxy)naphthalen-2-yl)propyl)-8-azabicyclo[3.2.1]octane-3-carboxylic acid]: the IC50 was ≤ 100 nM. Regarding `CC[C@H]1CC[C@@H](Oc2ccc3cc(C(=O)N4C5CCCC4CC(C(=O)O)C5)ccc3c2C#N)CC1` (stereo partly drawn) [Example 221, 9-(5-cyano-6-((cis-4-ethylcyclohexyl)oxy)-2-naphthoyl)-9-azabicyclo[3.3.1]nonane-3-carboxylic acid], the IC50 was ≤ 100 nM.
